Assay results taken from patent US8975086B2, “Method for treating or preventing bladder cancer using the DEPDC1 polypeptide” (OncoTherapy Science, Inc., priority 2008, dated 2015).

Legend:
[1] = system: DLG1; assay: Quantitative RT-PCR of downstream gene DLG1 in UM-UC-3 cells; assay type: cell-based, human; conditions: bladder cancer cells after peptide treatment
Experimental: UM-UC-3 cells were transfected with siRNA against DEPDC1 (si-DEPDC1), ZNF224 (si-ZNF224-2) or EGFP (control siRNA). The target sequences of the synthetic oligo-duplex for siRNA against DEPDC1 (Sigma Aldrich) were as follows: si-DEPDC1,5′-CCAAAGUUCCGUAGUCUAA-3′(SEQ ID NO: 75), ZNF224 (si-ZNF224-2) or EGFP as described in “RNA interference assay” section.
Total RNAs were extracted from each sample at 12 hours and 24 hours after the transfection, labeled with Cy5 (for si-DEPDC1- and si-ZNF224-2-transfected cells) or Cy3 (for si-EGFP-transfected cells), and subjected to cohybridization onto cDNA microarrayslides containing 36468 cDNA or ESTs as described previously (Takata R, et al., Clin Cancer Res 2005 11:2625-36). After normalization of the data, it was excluded genes from further analysis when Cy5 and Cy3 dyes yielded signals intensities lower than the cut-off value. For other genes, the Cy5/Cy3 ratio was calculated using the raw data of each samples. […] Validation of candidate downstream genes of both DEPDC1 and ZNF224 was carried out with quantitative RT-PCR analysis using the SYBR green dye (Rhoche) and the same amplified RNAs from UM-UC-3 cells used for cDNA microarray experiments, with each gene-specific primer as follows;
All experiments were performed in duplicate. The calculated quantity of the target gene for each sample was then divided by the average calculated quantity of beta 2-microglobulin (beta 2-MG) corresponding to each sample to give a relative expression of the target gene for each sample

[2] = molecular target: T1, DEPDC1-ZNF224 complex (Homo sapiens, UniProt Q9NZL3, H562R/M118V); assay: Immunoprecipitation of exogenous DEPDC1-HA and ZNF224-FLAG complex in peptide-treated COS7 cells; assay type: cell-based
T1 construct: expressed in transfected cells; host or cells: COS7 cells, transiently co-transfected (pCAGGS-type vectors)
T1 sequence (Q9NZL3 whole entry M118V/H562R, one chain of several): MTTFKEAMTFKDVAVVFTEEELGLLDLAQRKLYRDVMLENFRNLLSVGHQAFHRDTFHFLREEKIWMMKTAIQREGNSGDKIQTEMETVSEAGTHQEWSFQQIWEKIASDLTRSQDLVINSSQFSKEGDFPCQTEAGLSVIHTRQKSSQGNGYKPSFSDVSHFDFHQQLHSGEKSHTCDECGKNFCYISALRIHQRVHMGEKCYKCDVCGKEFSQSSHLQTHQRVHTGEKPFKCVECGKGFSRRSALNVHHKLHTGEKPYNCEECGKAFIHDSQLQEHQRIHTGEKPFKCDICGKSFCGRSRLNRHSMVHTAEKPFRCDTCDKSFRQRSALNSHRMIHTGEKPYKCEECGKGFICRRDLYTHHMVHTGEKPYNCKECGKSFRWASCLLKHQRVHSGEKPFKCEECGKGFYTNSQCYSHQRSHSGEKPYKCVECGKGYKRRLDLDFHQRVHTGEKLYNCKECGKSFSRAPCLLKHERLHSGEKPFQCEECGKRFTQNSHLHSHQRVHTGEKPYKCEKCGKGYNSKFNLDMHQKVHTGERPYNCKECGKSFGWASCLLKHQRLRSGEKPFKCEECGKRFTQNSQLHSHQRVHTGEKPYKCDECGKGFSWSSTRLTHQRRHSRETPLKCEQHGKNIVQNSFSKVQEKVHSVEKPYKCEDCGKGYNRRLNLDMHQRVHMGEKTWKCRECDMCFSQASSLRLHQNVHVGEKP
Experimental: To confirm the interaction between DEPDC1 and ZNF224 in bladder cancer cells and identify the ZNF224-binding region in DEPDC1, the immunoprecipitation experiment was carried out as follows. First, it was confirmed interaction between endogenous DEPDC1 and exogenous ZNF224 by immunoprecipitation experiments using anti-DEPDC1 polyclonal antibody for immunoprecipitation and anti-FLAGM2 antibody (Amersham) for immunoblotting. To further determine the ZNF224-binding region in DEPDC1, it was cloned six partial constructs of DEPDC1 (DEPDC11-147, DEPDC1141-300, DEPDC1177-597, DEPDC1300-669, DEPDC1587-740 and DEPDC1654-811) into appropriate sites of COOH-terminal HA-tagged pCAGGS vector. The nucleotide sequence of each clones were determined with an ABI Prism 3700 DNA sequencer (Applied Biosystems, Foster City, Calif.), using each primer. Cell extracts from Cos7 cell line, transfected with each of plasmids expressing one of these six partial segments of DEPDC1, were precleared by incubation at 4 degrees C. for 1 hour with 100 micro 1 of protein G-agarose beads in final volumes of 2 mL of immunoprecipitation buffer (0.5% NP40, 50 mmol/L Tris-HCl, 150 mmol/L NaCl) in the presence of proteinase inhibitor. After centrifugation at 1,000 rpm for 5 minutes at 4 degrees C., the supernatants were incubated at 4 degrees C. with anti-HA rat for 1 hours. After the beads were collected from each sample by centrifugation at 5,000 rpm for 2 minutes and washed six times with 1 mL of immunoprecipitation buffer, the washed beads were re-suspended in 50 uL of Laemmli sample buffer and boiled for 3 minutes before the proteins were separated on 10% SDS-PAGE gels. Immunoblot was done using anti-HA rat antibody and anti-FLAGM2 monoclonal antibody, respectively (Sigma-Aldrich Co., St. Louis, Mo.).
To examine the effect of these polyarginine (11R)-linked peptides on inhibition of the DEPDC1-ZNF224 complex formation, they were co-transfected with DEPDC1 and ZNF224 constructs into COS7 cells. […] Immunoprecipitation were performed according to methods as described in “Identification of the ZNF224-binding regions in DEPDC1 protein” section.

[3] = system: NF-kappaB (p65); assay: Immunocytochemical staining of nuclear NF-kappaB (p65) in UM-UC-3 cells; assay type: cell-based, human; conditions: UM-UC-3 cells treated with peptide for 12 hours
Experimental: For detection of NF-kappaB expression in the nucleus after treatment with dominant-negative peptide (see “Dominant-negative peptide section”), UM-UC-3 cells (1×10^5) were seeded and then treated with each peptide for 12 hours. Subsequently, immunocytochemical staining was performed using anti-NF-kappaB (p65) monoclonal antibody (diluted at 1:200) (Santa Cruz, Calif., USA). Fluorescent images and nuclear intensity of NF-kappaB (p65) protein were obtained under a TCS SP2 AOBS microscope (Leica, Tokyo, Japan). For the image analysis, the nuclear signal intensities of NF-kappaB (p65) were measured by observing nuclei of 50 cells treated with the 11R-DEP611-628 peptide or scramble peptide (see “Dominant-negative peptide section”). Assays were performed in triplicate independently.

[4] = system: UM-UC-3 cells; assay: MTT assay of cell viability of UM-UC-3 bladder cancer cells treated with 11R peptides; assay type: cell-based, human
Experimental: UM-UC-3 and normal human dermal fibroblast-derived NHDF-Ad cell lines were incubated with the 11R peptides at the concentration of 0, 1, 2, or 3 micromol/L for 5 days. Each peptide was added at every 24 hours at the appropriate concentrations and the viability of cells was evaluated by MTT assay at every day after the treatment.
To examine the effect of DEPDC1611-628 peptide on cell growth of UM-UC-3 and NHDF cells, the cells were incubated with the DEPDC1611-628 or scramble peptides at the concentration of 0, 1, 2, or 3 micro M for 5 days, respectively. Each peptide was added at every 24 hours at the appropriate concentrations and the viability of cells was evaluated by MTT assay every day. Absorbance at 570 nm wavelength was measured with a Microplate Reader 550 (Bio-Rad). These experiments were performed in triplicate.

Substance: RRRRRRRRRRR-GGG-LRMSRLSPNMIMQRPKRL (RRRRRRRRRRRGGGLRMSRLSPNMIMQRPKRL; An artificially synthesised dominant negative peptide) [scramble611-628]
- expression of DLG1 (quantitative RT-PCR) [1]: not
- complex formation of DEPDC1-HA and ZNF224-FLAG (immunoprecipitation) ([2]; four peptides at 3 micro M added 6 hours after transfection, twenty-four hours later): no effect
- complex formation between exogenously expressed DEPDC1-HA and ZNF224-Flag (immunoprecipitation) ([2]; six peptides added 6 hours after transfection, immunoprecipitation fifteen hours later): not inhibit
- nuclear-staining of NF-kappa B (p65) protein [3]: no effect
- cell viability measured by MTT assay ([4]; UM-UC-3 cells, peptide 1, 2 or 3 micro M added every 24 hours for 5 days): no effect
- cell growth or cellular morphology ([4]; cells treated with peptide, FIG. 5D): no alterations in cell growth or cellular morphology
